Results on ten compounds are retold here after US6248754A, “Substituted isoquinoline derivatives and their use as anticonvulsants” (SmithKline Beecham, p.l.c., priority 1997, dated 2001).

The structures appear in SMILES notation.

For assay [1], the system named is maximal (tonic hindlimb extension) electroshock seizures in male rats. As to the kind of experiment: Maximal electroshock seizure (MEST) threshold test, rat model. Format: in vivo. Conditions: 2 mg/kg p.o. at 2 h, suspended in 1% methyl cellulose, statistically significant. How it is done: The maximal electroshock seizure (MEST) threshold test in rodents is particularly sensitive for detecting potential anticonvulsant properties^1. In this model, anticonvulsant agents elevate the threshold to electrically-induced seizures whilst proconvulsants lower the seizure threshold.
The threshold for maximal (tonic hindlimb extension) electroshock seizures in male rats (Sprague Dawley, 80-150 g, 6 weeks old) was determined by a Hugo Sachs Electronik stimulator which delivered a constant current (0.3 sec duration; from 1-300 mA in steps of 5-20 mA). The procedure is similar to that outlined above for mouse and full details are as published by Upton et al,.^4
The percentage increase or decrease in CC50 for each group compared to the control is calculated.
Drugs are suspended in 1% methyl cellulose.

Assay [2] concerns the target novel receptor obtainable from rat forebrain tissue. In words: Radioligand binding assay, displacement of [3H]-Compound A. Conditions: competition with 20 nM [3H]-Compound A, room temperature 1 hour. How it is done:
The affinity of test compounds to the novel receptor site is assessed as follows. Whole forebrain tissue is obtained from rats. The tissue is first homogenised in buffer (usually 50 mM Tris/HCl, pH 7.4). The homogenised tissue is washed by centrifugation and resuspension in the same buffer, then stored at -70° C. until used. To carry out the radioligand binding assay, aliquots of tissue prepared as above (usually at a concentration of 1-2 mg protein/ml) are mixed with aliquots of [3H]-Compound A dissolved in buffer. The final concentration of [3H]-Compound A in the mixture is usually 20 nM. The mixture is incubated at room temperature for 1 hour. [3H]-Compound A bound to the tissue is then separated from unbound [3H]-Compound A by filtration through Whatman GF/B glass fibre filters. The filters are then washed rapidly with ice-cold buffer. The amount of radioactivity bound to the tissue trapped on the filters is measured by addition of liquid scintillation cocktail to the filters followed by counting in a liquid scintillation counter. In order to determine the amount of "specific" binding of [3H]-Compound A, parallel assays are carried out as above in which [3H]-Compound A and tissue are incubated together in the presence of unlabelled Compound A (usually 3 μM). The amount of binding of [3H]-Compound A remaining in the presence of this unlabelled compound is defined as "non-specific" binding. This amount is subtracted from the total amount of [3H]-Compound A binding (i.e. that present in the absence of unlabelled compound) to obtain the amount of "specific" binding of [3H]-Compound A to the novel site. The affinity of the binding of test compounds to the novel site can be estimated by incubating together [3H]-Compound A and tissue in the presence of a range of concentrations of the compound to be tested. The decrease in the level of specific [3H]-Compound A binding as a result of competition by increasing concentrations of the compound under test is plotted graphically, and non-linear regression analysis of the resultant curve is used to provide an estimate of compound affinity in terms of pKi value.

As for `COc1ccc(C(=O)Nc2ccc3c(c2Br)CNCC3)cc1C(F)(F)F` [Example 8, N-(8-Bromo-1,2,3,4-tetrahydroisoquinolin-7-yl)-4-methoxy-3-trifluoromethylbenzamide], the “increase in CC50 compared to control” value in assay [1] is 400%.
For `COc1ccc(C(=O)Nc2ccc3c(c2Cl)CN(C)CC3)cc1C(F)(F)F` [Example 6, N-(8-Chloro-2-methyl-1,2,3,4-tetrahydroisoquinolin-7-yl)-4-methoxy-3-trifluoromethylbenzamide], in assay [1], the “increase in CC50 compared to control” value is reported as 260%.
On the same count and under the same terms, in the case of `COc1ccc(C(=O)Nc2ccc3c(c2Br)CN(C)CC3)cc1C(F)(F)F` [Example 9, N-(8-Bromo-2-methyl-1,2,3,4-tetrahydroisoquinolin-7-yl)-4-methoxy-3-trifluoromethylbenzamide] it was 340%.
As for `CCc1c(NC(=O)c2ccc(OC)c(C(F)(F)F)c2)ccc2c1CN(C)CC2` [Example 15, N-(8-Ethyl-2-methyl-1,2,3,4-tetrahydroisoquinolin-7-yl)-4-methoxy-3-trifluoromethylbenzamide], the pKi entry in assay [2] is listed as “greater than 7”.
As for `CCOc1ccc(C(=O)Nc2ccc3c(c2Cl)CN(C)CC3)cc1Br` [Example 3, N-(8-chloro-2-methyl-1,2,3,4-tetrahydroisoquinolin-7-yl)-3-bromo-4-ethoxybenzamide], in assay [1], the “increase in CC50 compared to control” value turned out to be 160%. In assay [2], the pKi entry is on record as “greater than 7”.
Turning to `COc1ccc(C(=O)Nc2ccc3c(c2C=Cc2ccccc2)CNCC3)cc1C(F)(F)F` [Example 18, N-(8-Styryl-1,2,3,4-tetrahydroisoquinolin-7-yl)-4-methoxy-3-trifluoromethylbenzamide], the pKi result in assay [2] is recorded as “greater than 7”.
With `CCc1c(NC(=O)c2ccc(OC)c(C(F)(F)F)c2)ccc2c1CNCC2` [Example 14, N-(8-Ethyl-1,2,3,4-tetrahydroisoquinolin-7-yl)-4-methoxy-3-trifluoromethylbenzamide], in assay [2], the pKi result is “greater than 7”.
On to `COc1ccc(C(=O)Nc2ccc3c(c2C=Cc2ccccc2)CN(C)CC3)cc1C(F)(F)F.Cl` [Example 19, N-(8-Styryl-2-methyl-1,2,3,4-tetrahydroisoquinolin-7-yl)-4-methoxy-3-trifluoromethylbenzamide hydrochloride], for which, in assay [2], the pKi entry is “greater than 7”.
In the case of `CCOc1ccc(C(=O)Nc2ccc3c(c2Cl)CNCC3)cc1Br` [Example 2, N-(8-Chloro-1,2,3,4-tetrahydroisoquinolin-7-yl)-3-bromo-4-ethoxybenzamide], the “increase in CC50 compared to control” value in assay [1] is 120%. Besides, the pKi entry in assay [2] is “greater than 7”.
In the case of `COc1ccc(C(=O)Nc2ccc3c(c2Cl)CNCC3)cc1C(F)(F)F` [Example 5], in assay [1], the “increase in CC50 compared to control” value came to 320%. The pKi result in assay [2] is reported as “greater than 7”.
